The values below come from PubChem BioAssay (NCI).

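Cultured in 96-well plates, cells were exposed to test compound for 48 hours across five concentrations. At the GI50, growth is halved. TGI is the concentration that stops growth completely.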

Some test systems named below: ACHN renal; COLO 205 colon; HL-60(TB) leukemia; KM12 colon; LOX IMVI melanoma; NCI-H460 lung; OVCAR-3 ovarian; OVCAR-4 ovarian; U251 CNS; EKVX NSCLC.
Holding throughout (experiment): growth of human tumour cells (NCI), 48 h

As for `COc1ccc2c(ccc3oc([N+](=O)[O-])cc32)c1`, the GI50 in the assay with ACHN renal is 0.0274 µM; in the assay on COLO 205 colon, 0.172 µM; in the assay with HL-60(TB) leukemia, 0.0514 µM; in the assay with KM12 colon, 288 nM; in the assay with LOX IMVI melanoma it was 0.0551 µM; in the assay with NCI-H460 lung it was 0.181 µM. Further, the results for the GI50 in the assay on OVCAR-3 ovarian, with OVCAR-4 ovarian and with U251 CNS were 0.225 µM, 422 nM and 0.197 µM, respectively. Further, the TGI amounted to 0.232 µM in the assay on ACHN renal; 0.389 µM in the assay on COLO 205 colon; 0.487 µM in the assay with HL-60(TB) leukemia; 1.21 µM with KM12 colon; 0.312 µM with LOX IMVI melanoma; 0.85 µM with NCI-H460 lung. For the same compound, the TGI with OVCAR-3 ovarian turned out to be 0.57 µM; in the assay on OVCAR-4 ovarian, 2.01 µM; with U251 CNS it was 0.578 µM.
As for `COC(=O)c1ccc(N/C=C(/C#N)c2ccsc2)cc1`, the TGI is 18.8 µM with ACHN renal; greater than 100 µM in the assay with COLO 205 colon; 31.4 µM in the assay on EKVX NSCLC; greater than 100 µM in the assay with HL-60(TB) leukemia; 32.2 µM with KM12 colon; greater than 100 µM in the assay with NCI-H460 lung. The TGI was 23.1 µM in the assay with OVCAR-3 ovarian and 20.3 µM in the assay with U251 CNS.
For the compound `NC1=CC(=O)C(=O)c2ccccc21`, the GI50 in the assay with ACHN renal was 16.2 µM; with COLO 205 colon, 26.6 µM; with EKVX NSCLC, 18300 nM; in the assay with HL-60(TB) leukemia it was 11.9 µM; in the assay with KM12 colon it was 18200 nM; in the assay on LOX IMVI melanoma it was 15.9 µM. Moreover, the GI50 in the assay with NCI-H460 lung was 33.8 µM; in the assay on OVCAR-3 ovarian, 12.4 µM; with U251 CNS, 19.3 µM. In addition, the TGI is 50.1 µM in the assay with ACHN renal; greater than 100 µM in the assay with COLO 205 colon; 55.8 µM in the assay on EKVX NSCLC; 43.8 µM in the assay with HL-60(TB) leukemia; 53.4 µM in the assay with KM12 colon; 39.7 µM with LOX IMVI melanoma. The TGI in the assay with NCI-H460 lung was greater than 100 µM; in the assay with OVCAR-3 ovarian, 29.9 µM; in the assay on U251 CNS, 46.4 µM.
With `CCSc1nnc(-c2ccc3ccccc3c2O)n1-c1ccccc1`, the GI50 in the assay with HL-60(TB) leukemia is greater than 100 µM; with NCI-H460 lung it was 3.25 µM; with OVCAR-3 ovarian, greater than 100 µM; in the assay with OVCAR-4 ovarian it was 7220 nM. In addition, the TGI in the assay with HL-60(TB) leukemia, in the assay with NCI-H460 lung, in the assay with OVCAR-3 ovarian and with OVCAR-4 ovarian was greater than 100 µM each time.
With `CC(=O)Nc1ccc(S(=O)(=O)N/N=C(\C)CN2C(=O)c3ccccc3C2=O)cc1`, the TGI in the assay on ACHN renal, in the assay on COLO 205 colon, in the assay with EKVX NSCLC, in the assay with HL-60(TB) leukemia, in the assay on KM12 colon and with NCI-H460 lung was greater than 100 µM in each case. Besides, the TGI in the assay with OVCAR-3 ovarian, with OVCAR-4 ovarian and in the assay with U251 CNS was greater than 100 µM each time.
Take `Fc1cccc(-c2nc(-c3c[nH]c4ncccc34)cs2)c1`: the GI50 with ACHN renal is 9.68 µM; with COLO 205 colon, greater than 100 µM; in the assay with EKVX NSCLC it was 2460 nM; in the assay on HL-60(TB) leukemia, greater than 100 µM; in the assay with KM12 colon, greater than 100000 nM; in the assay on LOX IMVI melanoma it was greater than 100 µM. Moreover, the GI50 was 6.59 µM with NCI-H460 lung, 60.5 µM in the assay with OVCAR-3 ovarian and 25 µM in the assay on U251 CNS. The TGI in the assay on ACHN renal, in the assay on COLO 205 colon, in the assay on EKVX NSCLC, in the assay with HL-60(TB) leukemia, in the assay with KM12 colon and in the assay with LOX IMVI melanoma was greater than 100 µM in each case. For the same compound, the TGI in the assay on NCI-H460 lung, in the assay with OVCAR-3 ovarian and in the assay on U251 CNS was greater than 100 µM throughout.
For `CC(C)CCCC(C)[C@H]1CCC2C3CC=C4C[C@@H](OC(=O)CC(CC(=O)[O-])C(=O)[O-])CC[C@]4(C)C3CC[C@@]21C.N.N.[Pt+4]` (stereo partly drawn), the GI50 in the assay with ACHN renal was 47.6 µM; in the assay with COLO 205 colon, greater than 100 µM; in the assay on EKVX NSCLC, greater than 100000 nM; in the assay on HL-60(TB) leukemia, greater than 100 µM; in the assay on LOX IMVI melanoma, greater than 100 µM; with NCI-H460 lung, greater than 100 µM. Besides, the values for the GI50 with OVCAR-3 ovarian, with OVCAR-4 ovarian and in the assay on U251 CNS were greater than 100 µM, greater than 100000 nM and greater than 100 µM, respectively. The TGI in the assay with ACHN renal, with COLO 205 colon, in the assay on EKVX NSCLC, with HL-60(TB) leukemia, in the assay with LOX IMVI melanoma and with NCI-H460 lung was greater than 100 µM in each case. For the same compound, the TGI in the assay on OVCAR-3 ovarian, with OVCAR-4 ovarian and with U251 CNS was greater than 100 µM throughout.
Regarding `NC(=S)N/N=C1/C(=O)N(c2ccccc2)C(=O)C1C(=O)Nc1ccccc1` (stereo not drawn), the TGI in the assay on ACHN renal, with COLO 205 colon, with EKVX NSCLC, in the assay with HL-60(TB) leukemia, in the assay on KM12 colon and in the assay on NCI-H460 lung was greater than 100 µM each time. The TGI with OVCAR-3 ovarian, with OVCAR-4 ovarian and in the assay on U251 CNS was greater than 100 µM each time.
For `O=C(Cc1ccccc1)N/N=C(/c1nc2ccc([N+](=O)[O-])cc2[nH]c1=O)C(O)c1ccco1` (stereo not drawn), the TGI in the assay on ACHN renal, with COLO 205 colon, with EKVX NSCLC, with HL-60(TB) leukemia, with KM12 colon and with LOX IMVI melanoma was greater than 100 µM throughout. Further, the TGI in the assay with NCI-H460 lung, in the assay on OVCAR-4 ovarian and with U251 CNS was greater than 100 µM each time.
As to `NCCNc1nc2ccc(F)cc2c2c(=O)c3cc(F)ccc3sc12`, the GI50 with ACHN renal was 1.5 µM; with EKVX NSCLC, 1650 nM; in the assay on HL-60(TB) leukemia it was 2.28 µM; in the assay on KM12 colon, 1810 nM; in the assay on LOX IMVI melanoma, 1.72 µM; with NCI-H460 lung it was 1.85 µM. The values for the GI50 in the assay on OVCAR-3 ovarian, with OVCAR-4 ovarian and in the assay with U251 CNS were 1.63 µM, 2600 nM and 1.76 µM, respectively. The TGI with ACHN renal turned out to be 2.83 µM; with EKVX NSCLC it was 3.95 µM; in the assay on HL-60(TB) leukemia, 5.21 µM; in the assay with KM12 colon, 3.46 µM; with LOX IMVI melanoma it was 3.13 µM; in the assay with NCI-H460 lung, 3.47 µM. The results for the TGI with OVCAR-3 ovarian, with OVCAR-4 ovarian and in the assay with U251 CNS were 3.15 µM, 8.01 µM and 3.24 µM, respectively.
